Measurements taken from patent publication US20080234183A1, “Cell Penetrating Peptides” (priority 2002, published 2008).

How the values were obtained:
Bowes cells = assay: Cell viability measurement (CellTiter-Glo); type: cell-based, human; conditions: 24 h in 10% FBS-MEM
Experimental: Bowes human melanoma cells were obtained from American Type Culture Collection (Manassas, Va.). Bowes cells were cultured in Minimal Essential Medium with Earie's sats complemented with Glutamax-I, non-essential amino acids, sodium pyruvate, penicillin, streptomycin (referred on figures as “MEM”) and 10% foetal bovine serum (FBS). All media components for Bowes cells were from invitrogen Corporation (Paisley, UK). Trypsin/EDTA was from PAA laboratories GmbH (Linz, Austria). Cells were subcultured once a week, seeding 200 000 cells per T75. For the viability assays, 50 000 cells (in 300 μl) were seeded per a well in a 24-well-plate a day before the experiment. K562 human erythroleukemia cells were obtained from American Type Culture Collection (Manassas, Va.). K562 cells were cultured in RPMI-1640 medium complemented with Glutamax-I, penicillin, streptomycin (referred in FIG. 32-35 as “RPMI”) and foetal bovine serum (7.5%). All media components for K562 cells were from invitrogen Corporation (Paisley, UK). […]
The stock solutions of the conjugates (1 mM) were prepared in sterile water and the stock solution of MTX in 10% DMSO in water. […] Then 300 μl was transferred to a white polystyrene FluoroNunc™ plate (Nunc A/S, Roskilde, Denmark) and luminescence was recorded at dual-scanning microplate spectrofluorometer (SPECTRAmax® GEMINI XS, Molecular Devices, Sunnyvale, Calif.).

cells = assay: Protein internalisation by YTA-2 of Fluo-Streptavidin; type: cell-based; conditions: 67 kDa fluorescein labelled streptavidin linked to biotinylated peptide
Experimental: FIG. 39. Protein internalisation by YTA-2 of Fluo-Streptavidin 37° C. and T/E, showing the delivery property of a selCPP.
FIG. 40. Protein internalisation by YTA-2 of Fluo-Streptavidin 4° C. and T/E, showing the delivery property and temperature independency of a selCPP.

MMP2 = biological target: T1, MMP2 (Homo sapiens, UniProt P08253); assay: Specific cleavage by matrix metallo proteinase-2; type: biochemical; conditions: mass spectrometry, data not shown
T1 construct: check the specific cleavage of YTA-2 ps by active MMP-2
T1 sequence (P08253 110-660): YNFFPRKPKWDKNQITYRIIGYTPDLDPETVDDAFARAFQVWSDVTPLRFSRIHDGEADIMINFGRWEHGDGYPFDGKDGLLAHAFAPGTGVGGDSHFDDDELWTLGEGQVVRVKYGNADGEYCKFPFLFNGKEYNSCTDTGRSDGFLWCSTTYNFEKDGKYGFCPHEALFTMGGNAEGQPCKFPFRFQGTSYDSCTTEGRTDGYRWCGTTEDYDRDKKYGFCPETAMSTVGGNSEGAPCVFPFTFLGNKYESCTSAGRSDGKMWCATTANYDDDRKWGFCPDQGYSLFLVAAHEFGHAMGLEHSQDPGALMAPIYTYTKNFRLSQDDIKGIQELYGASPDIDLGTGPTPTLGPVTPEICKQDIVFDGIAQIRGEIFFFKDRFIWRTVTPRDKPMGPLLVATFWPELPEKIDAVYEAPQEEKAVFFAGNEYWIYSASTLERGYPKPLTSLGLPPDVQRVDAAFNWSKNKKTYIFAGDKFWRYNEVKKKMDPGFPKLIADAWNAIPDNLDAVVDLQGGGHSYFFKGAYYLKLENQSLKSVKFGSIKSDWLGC
Experimental: (data not shown). […] The next step in the development of this technique is to check the specific cleavage of YTA-2 ps by active MMP-2. It is performed by a fluorescence/quencher assay, wherein the MMP-2 substrate YTA-2 ps upon cleavage increases in fluorescence intensity. The correct cleavage is further checked by mass spectrometry.

LoVo cells = assay: Internalisation of biotinylated selCPPs, fluorescence microscopy; type: cell-based, human
Experimental: One aspect of the present invention thus comprises a method for screening the cellular uptake of a broad variety of CPPs in vitro, wherein cells are grown on glass cover slips to suitable, such as 50%, density, whereupon the media is changed to serum free and a blotinylated peptide solution is added. The cells are then incubated, washed, fixed and the peptides are visualised by staining with, e.g. avidin-FITC, or streptavidin-TRITC, and the cell nuclei are counterstained, e.g. with Hoechst. Images are preferably obtained with a fluorescence microscope and evaluated.
FIG. 5. Example of inactivated selCPP. Internalisation of YTA-2 (A) compared to YTA-2 ps (B) In LoVo cells, both biotynilated peptides detected by TRITC-avidin at 37° C.
The cells were grown on round glass cover slips (12 mm, GTF, Sweden) in a 24-well plate to approximately 50% confluence. The media was changed to serum free and the biotinylated peptide solutions were added. The cells were incubated for 30 min at 37 or 4° C. The cells were washed twice with PBS, fixed with 4% paraformaldehyde solution 15 min at room temperature (dark) and then permeabilised in 30 mM HEPES buffer containing 0.5% w/v Triton X-100, 3 min on Ice. Sites for unspecific binding were blocked In PBS containing 3% (w/v) bovine serum albumin, overnight at 4° C. The peptides were visualised by staining with avidin-FrTC or streptavidin-TRITC (Molecular Probes, the Netherlands). The cell nuclei were stained with Hoechst 33258 (0.5 μg/ml) for 5 min, after which the cover slips were washed 3 times with PBS and mounted in 25% glycerol in PBS. The images were obtained with a Leica DM IRE2 fluorescence microscope (Leica Microsystem., Sweden) and processed in PhotoShop 6.0 software (Adobe Systems Inc., CA) (See e.g. FIG. 38-40).

Row | cleavage by MMP2 (MMP2) | Substance | toxic effect on cell viability (Bowes cells) | cargo transport (cells) | Comment (staining/localisation) (LoVo cells) | Entry into cells (LoVo cells; 37° and 4° C.)
1 |  | Apa-γGlu-Gly-pVEC | more toxic than Apa-Glu-Gly-pVEC |  |  | 
2 | confirmed by mass spectrometry | YTAIAWVKAFIRKLRK [YTA-2] |  | can transport large cargo molecules into cells | stain also nuclear | can efficiently enter cells
